Measurements taken from US9637502B2, “Crystal form of Cefathiamidine compound and preparation method therefor” (TIANJIN UNIVERSITY, priority 2014, dated 2017).

Key:
[1] = prior-art crystalline forms; cited from earlier work
[2] = Differential scanning calorimetry, decomposing exothermic peak; type: physicochemical; details: 25˜200° C., 10° C./min, nitrogen 80 mL/min
Method: The novel crystalline form of Cefathiamidine compound provided in the present invention is determined by differential scanning calorimeter, and the differential scanning calorimetry thermogram comprises a melting endothermic peak at 169.6±1° C. and a decomposing exothermic peak at 172.2±1° C. as shown in FIG. 6. Test conditions are as follows: temperature range, 25˜200° C., temperature rising rate, 10° C./min, nitrogen protection: 80 mL/min.

[3] = Thermal stability tests (storage); type: physicochemical; details: within 4 months at 30° C.
Method: 5 g of solid Cefathiamidine compound with a purity of 98% was added to 100 mL of ethanol at a temperature of 45° C., until being totally dissolved to form a solution, and then 300 mL of isopropanol as a solventing-out agent was dropwise added to the solution within 3 hours; followed by cooling the solution down to 0° C. at a rate of 0.2° C./min; continuing to stir for 3 hours.

[4] = Toxicity test, LD50 in mice; details: mouse, in vivo
Method: (§1) The novel crystalline form of Cefathiamidine compound of the present invention was tested by toxicity tests and in vitro antibacterial activity tests (taking the crystalline form of Cefathiamidine compound obtained in Example 1 for example).

[5] = Reproductive toxicity test; type: in vivo; details: compared with prior art
Method: as §1

[6] = system: another three bacterias; assay: In vitro antibacterial activity test; type: cell-based; details: against another three bacterias
Method: as §1
(§2) Thus, the antibacterial activity was better than that of any prior art, and was more suitable for clinical application.

[7] = system: enterococcus; assay: In vitro antibacterial activity test; type: cell-based; details: against enterococcus
Method: as §1, §2

[8] = system: haemophilus influenza; assay: In vitro antibacterial activity test; type: cell-based; details: against haemophilus influenza
Method: as §1, §2

[9] = system: streptococcus pneumonia; assay: In vitro antibacterial activity test; type: cell-based; details: Streptococcus pneumoniae; against streptococcus pneumonia
Method: as §1, §2

[10] = system: streptococcus pyogenes; assay: In vitro antibacterial activity test; type: cell-based; details: against streptococcus pyogenes
Method: as §1, §2

## CC(=O)OCC1=C(C(=O)O)N2C(=O)[C@@H](NC(=O)CSC(=NC(C)C)NC(C)C)[C@H]2SC1 [crystalline form of Cefathiamidine obtained from acetonitril]
[1]
  thermal cracking / decomposition temperature: 145.4 °C

## CC(=O)OCC1=C(C(=O)O)N2C(=O)[C@@H](NC(=O)CSC(=NC(C)C)NC(C)C)[C@H]2SC1
[2]
  thermal decomposing temperature (decomposing exothermic peak, DSC): 172.2±1 °C

## CC(=O)OCC1=C(C(=O)O)N2C(=O)[C@@H](NC(=O)CSC(=NC(C)C)NC(C)C)[C@H]2SC1 [Example 6]
[3]
  thermal stability (change on storage): did not make any change
[2]
  thermal decomposing temperature (decomposing exothermic peak, DSC): 171.8 °C

## CC(=O)OCC1=C(C(=O)O)N2C(=O)[C@@H](NC(=O)CSC(=NC(C)C)NC(C)C)[C@H]2SC1.N [Example 1, (6R,7R)-3[(acetyloxy)methyl]-7-[α-(N,N′-diisopropyl-carbamimidoylsulfanyl)-acetylamino]-8-oxo-5-thia-1-aza-bicyclo[4,2,0]oct-2-ene-2-carboxylic acid ammonium salt]
[4]; ip, intraperitoneal injection
  LD50: 1300 ± 200 mg/kg
[4]; mice, intravenous injection
  LD50: 1100 ± 20 mg/kg
[5]
  reproductive toxicity: lower reproductive toxicity than that of any prior art
[6]
  MIC90: < 7.8 µg/mL
[7]
  MIC90: 1.9 µg/mL
[8]
  MIC90: 1.8 µg/mL
[9]
  MIC90: 0.24 µg/mL
[10]
  MIC90: 0.48 µg/mL
[3]
  thermal stability (change on storage): did not make any change
[2]
  thermal decomposing temperature (decomposing exothermic peak, DSC): 172.2 °C

## CC(=O)OCC1=C(C(=O)O)N2C(=O)[C@@H](NC(=O)CSC(=NC(C)C)NC(C)C)[C@H]2SC1 [crystalline form prepared in CN1495187A]
[1]
  thermal cracking / decomposition temperature: ≥ 154±1 °C
